A short description of data set [1]: hGH clearance after bolus administration. In kind it is in vivo. Particulars: i.p. or i.v. An excerpt:
Therefore, the observed hGH secretion in this example appears to be a sustained phenomenon.

In data set [2] the test system is ZFHD1-FKBPx3 with FKBPx3-VP16 or FKBPx3-p65, pZHWTx8SVSEAP reporter. As to the kind of experiment: FK1012-dependent SEAP transcriptional activation in 293 cells. Format: cell-based. Particulars: 24 hour incubation. On the procedure:
293 cells were grown in D-MEM (Gibco BRL) supplemented with 10% Bovine Calf Serum. Cells in 35 mm dishes (2.5×10^5 cells/dish) were transiently transfected with use of calcium phosphate precipitation (Ausubel et. al., 1994). Each dish received 375 ng pZHWTx8SVSEAP; 12 ng pCGNNZFHD1-FKBPx3 and 25 ng pCGNNFKBPx3-VP16 or pCGNNFKBPx3-p65. Following transfection, 2 ml fresh media was added and supplemented with FK1012 to the desired concentration. After a 24 hour incubation […] aliquot of media was removed and assayed for SEAP activity as described (Spencer et. al., 1993).

Data set [3] relates to ZFHD1-FKBPx3 and FRB-p65 fusion proteins, hGH reporter linked to ZFHD1 binding sites. As to the kind of experiment: Rapamycin-dependent hGH expression in transfected HT1080 cell culture. Format: cell-based. To be noted: HT1080 cells with three constructs. As to the method: Using the approach described in Example 6, constructs were prepared encoding the ZFHD1-FKBPx3 fusion protein, a second fusion protein containing the FKBP:rapaymcin binding (“FRB”) region of FRAP linked to the p65 activation domain, and a reporter cassette containing a gene encoding human growth hormone linked to multiple ZFHD1 binding sites. The natural product, rapamycin, forms a ternary complex with FKBP12 and FRAP. Similarly, rapamycin is capable of binding to one or more of the FKBP domains and FRAP FRB domains of the fusion proteins.

The subject of data set [4] is ZFHD1-FKBPx3 and FRB-p65 fusion proteins, hGH target gene in implanted cells. As to the kind of experiment: Rapamycin-dependent serum hGH in nu/nu mice implanted with transfected HT1080 cells. In kind it is in vivo. Particulars: rapamycin i.v. 10-10,000 μg/kg, serum 17 hours after administration. On the procedure:
Human cells (2×10^6) transfected with plasmids encoding transcription factors ZFHD1-FKBPx3 and FRB-p65 and a target gene directing the expression of human growth hormone (hGH) were injected into the skeletal muscles of nu/nu mice. Mice were treated with the indicated concentration of rapamycin by tail vein injection. After 17 hours, serum hGH levels were determined by ELISA. Each point represents X±SEM (n=at least 5 per point). Control animals received either engineered cells without drug or drug (10^3 or 10^4 μg/kg) without engineered cells.
2×10^6 cells from the transfected HT1080 culture were administered to nu/nu mice by intramuscular injection. Following cell implantation, rapamycin was administered i.v. over a range of doses (from 10-10,000 μg/kg). Serum samples were collected from the mice 17 hours after rapamycin administration. Control groups consisted of mice that received no cells but 1.0 mg/kg rapamycin (i.v.) as well as mice that received the cells but no rapamycin.
Neither control group produced measurable hGH. The limit of detection of the hGH assay is 0.0125 ng/ml.

As for “hGH: human growth hormone, reporter gene product; bolus clearance stated”, in data set [1], the hGH clearance half-life entry is given as “less than 2 minutes” and the “time to undetectable hGH levels” value was at most 30 min.
For the compound `CO[C@H]1C[C@@H](C)C/C(C)=C/[C@@H](CCOC(=O)NCc2ccc(CNC(=O)OCC[C@@H]3/C=C(\C)C[C@H](C)C[C@H](OC)C4O[C@@](O)(C(=O)C(=O)N5CCCC[C@H]5C(=O)OC(/C(C)=C/[C@@H]5CC[C@@H](O)[C@H](OC)C5)[C@H](C)[C@@H](O)CC3=O)[C@H](C)C[C@H]4OC)cc2)C(=O)C[C@H](O)[C@@H](C)C(/C(C)=C/[C@@H]2CC[C@@H](O)[C@H](OC)C2)OC(=O)[C@@H]2CCCCN2C(=O)C(=O)[C@]2(O)OC1[C@H](OC)C[C@H]2C` (some centres unmarked) [FK1012], in data set [2], the “FK1012 concentration at peak activation” value is recorded as 100 nM.
Take rapamycin: the “rapamycin-dependent expression of the hGH gene in cell culture” value in data set [3] is reported as “rapamycin-dependent expression of the hGH gene”. Besides, in data set [4], the “expression of hGH (circulating hGH)” value is “Dose-responsive expression of hGH”.
